The test system of experiment [1] is prostate cancer cell line (LNCaP). Put plainly: Clonogenic assay in soft agar, LNCaP. The experiment is classed as cell-based. The settings on record: Homo sapiens, LNCaP cells, read-out: ED50 (effective dose that inhibited 50% colony formation). The method, then: Cell lines. The breast cancer cell line (MCF-7), prostate cancer cell line (LNCaP) and myeloid leukemia cell line (HL-60) were maintained as follows: MCF-7 cells were maintained in Dulbecco's Modified Eagle Media (DMEM) with 10% fetal calf serum (FCS); LNCaP and HL-60 were cultured in RPMI1640 with 10% FCS; All three cell lines were maintained in a 37° C. incubator containing 5% CO2.
Vitamin D3 Compounds. The vitamin D3 compounds were dissolved in absolute ethanol at 10^-3 M as stock solution, which were stored at -20° C. and protected from light. For in vitro use, compounds were diluted in DMEM or RPMI medium. For in vivo use, compounds were diluted with phosphate buffered saline (PBS). […]. Washed single-cell suspensions of cells were enumerated and plated into 24-well flat-bottomed plates with a total of […] cells/well in a volume of 400 μl/well. The feeder layer was prepared with agar that had been equilibrated at 42° C. Prior to this step, compounds were pipetted into wells. After incubation, the colonies were counted. All experiments were done at least three times using triplicate plates per experimental point.
Effect of Vitamin D3 analogs on Clonogenic Assay. […]

In a further experiment the test system is sebaceous glands. Kind of experiment: Sebaceous gland area, hamster ear (image analysis). It is filed as in vivo, Golden Syrian hamsters. The following applies: 4 weeks. On the procedure:
Two hundred μl of (1,25)OH2 -16-ene-5,6-trans D3 was dissolved in propylene glycol, administered daily (5 days per week) by gavage to […] Golden Syrian hamsters. The animals were sacrificed at 4 weeks and the ears were processed for histological evaluation. The area of the sebaceous glands was measured on histologically prepared cross sections of the ear by image analysis.

As to `C=C1/C(=C/C=C2\CCC[C@]3(C)C([C@H](C)CCCC(C)(C)O)=CC[C@@H]23)C[C@@H](O)C[C@@H]1O` [1,25(OH)2-16-ene-5,6-trans-D3, 1,25-Dihydroxy-16-ene-5,6-trans-cholecalciferol], the IC50 in experiment [1] is 1.4 nM. The “sebaceous gland area, % Change from Control” value with sebaceous glands (0.01 μg/day gavage) is -5%; with sebaceous glands (0.1 μg/day gavage), -23%; in the experiment on sebaceous glands (1 μg/day gavage), -50%; with sebaceous glands (10 μg/day gavage), -50%.

Values taken from patent US6331642A, “Vitamin D3 analogs” (Hoffmann-La Roche Inc., priority 2000, dated 2001).
